Data taken from ChEMBL document CHEMBL1909046, “DrugMatrix in vitro pharmacology data”.

Experiments:
[1] = DRUGMATRIX: Tumor Necrosis Factor (TNF), Non-Selective radioligand binding (ligand: [125I] TNF-alpha); type: cell membranes, Membrane; conditions: u-937; Not Active = under 50% inhibition at 10 µM
[2] = DRUGMATRIX: Calcium Channel Type L, Dihydropyridine radioligand binding (ligand: [3H] Nitrendipine); type: cell membranes, Rattus norvegicus, Wistar, Cerebral cortex, Membrane; conditions: Not Active = under 50% inhibition at 10 µM
[3] = target: Mitogen-activated protein kinase 3 (Homo sapiens, UniProt P27361); assay: DRUGMATRIX: Protein Serine/Threonine Kinase, ERK1 enzyme inhibition (substrate: Myelin Basic Protein); design: species or system Escherichia coli; conditions: Not Active = under 50% inhibition at 10 µM
Calcitonin receptor = target: T1, Calcitonin receptor (Homo sapiens, UniProt P30988); type: cell membranes, Membrane; conditions: t47d; note: in other assays of this panel Not Active means under 50% inhibition at 10 µM
T1 sequence (P30988 whole entry): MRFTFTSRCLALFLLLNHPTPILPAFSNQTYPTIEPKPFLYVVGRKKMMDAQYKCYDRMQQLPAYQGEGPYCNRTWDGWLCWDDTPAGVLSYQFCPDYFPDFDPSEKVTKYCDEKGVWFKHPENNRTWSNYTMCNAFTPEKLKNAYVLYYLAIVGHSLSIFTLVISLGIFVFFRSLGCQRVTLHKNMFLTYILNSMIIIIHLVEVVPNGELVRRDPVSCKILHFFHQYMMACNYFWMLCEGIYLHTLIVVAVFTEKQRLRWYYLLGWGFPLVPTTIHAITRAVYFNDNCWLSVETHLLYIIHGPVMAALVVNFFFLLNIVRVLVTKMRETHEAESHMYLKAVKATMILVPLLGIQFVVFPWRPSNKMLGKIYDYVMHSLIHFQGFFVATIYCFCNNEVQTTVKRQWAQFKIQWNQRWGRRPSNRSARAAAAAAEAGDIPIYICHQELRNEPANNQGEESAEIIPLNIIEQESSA

B2 bradykinin receptor = target: T2, B2 bradykinin receptor (Homo sapiens, UniProt P30411); type: cell membranes, Membrane; conditions: chem-1; note: in other assays of this panel Not Active means under 50% inhibition at 10 µM
T2 sequence (P30411 whole entry): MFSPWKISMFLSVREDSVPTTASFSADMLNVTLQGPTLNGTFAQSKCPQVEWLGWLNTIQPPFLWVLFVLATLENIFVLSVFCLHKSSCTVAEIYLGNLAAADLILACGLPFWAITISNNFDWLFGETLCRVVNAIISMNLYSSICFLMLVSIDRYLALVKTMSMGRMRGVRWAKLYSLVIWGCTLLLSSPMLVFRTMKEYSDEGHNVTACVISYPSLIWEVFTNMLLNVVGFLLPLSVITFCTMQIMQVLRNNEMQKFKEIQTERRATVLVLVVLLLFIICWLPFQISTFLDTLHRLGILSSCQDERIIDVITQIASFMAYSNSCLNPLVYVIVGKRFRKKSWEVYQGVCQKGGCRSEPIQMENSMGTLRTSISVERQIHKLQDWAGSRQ

[4] = DRUGMATRIX: Phosphodiesterase PDE3 enzyme inhibition (substrate: [3H]cAMP + cAMP); type: tissue-based, Homo sapiens; conditions: platelet; Not Active = under 50% inhibition at 10 µM
[5] = target: T3, Alpha-1B adrenergic receptor (Rattus norvegicus, UniProt P15823); assay: DRUGMATRIX: Alpha-1B adrenergic receptor radioligand binding (ligand: prazosin); type: cell membranes, Wistar, Liver, Membrane; conditions: Not Active = under 50% inhibition at 10 µM
T3 sequence (P15823 whole entry): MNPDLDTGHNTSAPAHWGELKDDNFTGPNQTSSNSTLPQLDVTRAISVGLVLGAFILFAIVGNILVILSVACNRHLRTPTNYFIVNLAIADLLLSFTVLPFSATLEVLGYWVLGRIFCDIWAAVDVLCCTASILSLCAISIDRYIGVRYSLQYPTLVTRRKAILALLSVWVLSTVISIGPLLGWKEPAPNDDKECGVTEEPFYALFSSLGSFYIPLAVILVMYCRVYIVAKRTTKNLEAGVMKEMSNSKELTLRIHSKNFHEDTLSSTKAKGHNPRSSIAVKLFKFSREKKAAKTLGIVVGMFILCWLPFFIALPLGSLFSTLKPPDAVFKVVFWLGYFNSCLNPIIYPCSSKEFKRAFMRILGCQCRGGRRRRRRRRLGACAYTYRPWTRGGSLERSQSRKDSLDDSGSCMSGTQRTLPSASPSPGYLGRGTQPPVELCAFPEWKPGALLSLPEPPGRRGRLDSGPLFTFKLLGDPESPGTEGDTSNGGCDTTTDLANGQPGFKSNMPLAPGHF

[6] = target: Beta-3 adrenergic receptor (Homo sapiens, UniProt P13945); assay: DRUGMATRIX: Adrenergic beta3 radioligand binding (ligand: [125I] Cyanopindolol); type: cell membranes, Membrane; conditions: hek293; Not Active = under 50% inhibition at 10 µM
Cytochrome P450 2C9 = Cytochrome P450 2C9 (Homo sapiens, UniProt P11712); conditions: bti-tn-5b1-4; note: in other assays of this panel Not Active means under 50% inhibition at 10 µM
Cytochrome P450 2C9, sequence (P11712 whole entry): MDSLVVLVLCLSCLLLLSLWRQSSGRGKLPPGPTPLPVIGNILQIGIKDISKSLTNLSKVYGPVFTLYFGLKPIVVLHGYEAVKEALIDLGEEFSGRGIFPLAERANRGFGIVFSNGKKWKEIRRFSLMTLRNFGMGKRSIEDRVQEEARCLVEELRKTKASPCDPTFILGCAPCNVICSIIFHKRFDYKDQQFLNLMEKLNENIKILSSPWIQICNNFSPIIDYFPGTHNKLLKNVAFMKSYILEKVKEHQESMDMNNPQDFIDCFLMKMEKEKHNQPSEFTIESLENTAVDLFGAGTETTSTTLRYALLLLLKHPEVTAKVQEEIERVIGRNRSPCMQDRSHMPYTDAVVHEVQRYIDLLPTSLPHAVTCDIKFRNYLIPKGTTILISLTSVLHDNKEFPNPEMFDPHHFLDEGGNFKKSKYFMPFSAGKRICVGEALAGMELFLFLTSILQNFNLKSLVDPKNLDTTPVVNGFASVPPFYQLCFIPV

Beta-3 adrenergic receptor, sequence (P13945 whole entry): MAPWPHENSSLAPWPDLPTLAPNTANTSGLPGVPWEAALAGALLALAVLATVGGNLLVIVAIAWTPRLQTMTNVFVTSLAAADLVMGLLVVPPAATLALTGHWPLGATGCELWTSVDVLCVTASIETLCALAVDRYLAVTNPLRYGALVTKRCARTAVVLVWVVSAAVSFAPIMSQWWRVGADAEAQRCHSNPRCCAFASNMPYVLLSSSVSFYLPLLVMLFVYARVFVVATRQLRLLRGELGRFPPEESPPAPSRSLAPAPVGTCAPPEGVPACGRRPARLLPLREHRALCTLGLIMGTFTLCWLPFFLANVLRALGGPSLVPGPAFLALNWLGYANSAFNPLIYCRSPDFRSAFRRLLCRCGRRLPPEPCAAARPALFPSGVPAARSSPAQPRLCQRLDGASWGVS
Mitogen-activated protein kinase 3, sequence (P27361 whole entry): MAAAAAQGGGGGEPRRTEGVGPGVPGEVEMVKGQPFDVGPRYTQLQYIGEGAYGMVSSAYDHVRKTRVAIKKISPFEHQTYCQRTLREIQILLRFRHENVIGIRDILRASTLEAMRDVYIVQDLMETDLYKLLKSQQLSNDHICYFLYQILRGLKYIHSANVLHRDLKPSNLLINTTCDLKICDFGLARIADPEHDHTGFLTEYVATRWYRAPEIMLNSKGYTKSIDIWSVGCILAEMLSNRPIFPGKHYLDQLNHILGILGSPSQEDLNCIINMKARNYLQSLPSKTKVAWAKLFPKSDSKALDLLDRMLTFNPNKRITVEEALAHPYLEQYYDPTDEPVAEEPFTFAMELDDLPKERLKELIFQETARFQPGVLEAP

Row | SMILES | IC50 [1] | Ki [1] | IC50 [2] | Ki [2] | IC50 [3] | IC50 (Calcitonin receptor) | IC50 (B2 bradykinin receptor) | IC50 [4] | Ki [4] | IC50 [5] | IC50 [6] | IC50 (Cytochrome P450 2C9) | Ki (Cytochrome P450 2C9) | IC50 ([2]; read-out: IC50) | Ki ([2]; read-out: Ki)
1 | COc1ccccc1C(=O)N1CCC(Cc2ccccc2)CC1 | Not Active | Not Active | Not Active | Not Active | Not Active | Not Active | Not Active | Not Active | Not Active | Not Active | Not Active |  |  |  | 
2 | Cc1ccccc1C(=O)N1CCC(Cc2ccccc2)CC1 | Not Active | Not Active | Not Active | Not Active | Not Active | Not Active | Not Active | Not Active | Not Active | Not Active | Not Active |  |  |  | 
3 | O=C1CC[C@H](N2C(=O)c3ccccc3C2=O)C(=O)N1 | Not Active | Not Active | Not Active | Not Active | Not Active | Not Active | Not Active | Not Active | Not Active | Not Active | Not Active | Not Active | Not Active |  | 
4 | N=C(Nc1ccccc1)Nc1ccccc1 | Not Active | Not Active | Not Active | Not Active | Not Active | Not Active | Not Active | Not Active | Not Active | Not Active | Not Active | Not Active | Not Active |  | 
5 | CCCC(=O)Nc1ccc(OCC(O)CNC(C)C)c(C(C)=O)c1 (stereo unspecified) [ACEBUTOLOL] | Not Active | Not Active | Not Active | Not Active | Not Active | Not Active | Not Active | Not Active | Not Active | Not Active | Not Active |  |  |  | 
6 | Cc1cc(=O)n(-c2ccccc2)n1C [ANTIPYRINE] | Not Active | Not Active | Not Active | Not Active | Not Active | Not Active | Not Active | Not Active | Not Active | Not Active | Not Active |  |  |  | 
7 | O=NN(CCCl)C(=O)NCCCl [CARMUSTINE] | Not Active | Not Active | Not Active | Not Active | Not Active | Not Active | Not Active | Not Active | Not Active | Not Active | Not Active |  |  |  | 
8 | CC1=C(C(=O)O)N2C(=O)[C@@H](NC(=O)[C@H](N)c3ccccc3)[C@H]2SC1 [CEPHALEXIN ANHYDROUS] | Not Active | Not Active | Not Active | Not Active | Not Active | Not Active | Not Active | Not Active | Not Active | Not Active | Not Active |  |  |  | 
9 | O=C(N[C@H](CO)[C@H](O)c1ccc([N+](=O)[O-])cc1)C(Cl)Cl [CHLORAMPHENICOL] | Not Active | Not Active | Not Active | Not Active | Not Active | Not Active | Not Active | Not Active | Not Active | Not Active | Not Active |  |  |  | 
10 | CCOC(=O)C(C)(C)Oc1ccc(Cl)cc1 [CLOFIBRATE] | Not Active | Not Active | Not Active | Not Active | Not Active | Not Active | Not Active | Not Active | Not Active | Not Active | Not Active |  |  |  | 
11 | C[C@@H]1C[C@@H]([C@H](O)CC2CC(=O)NC(=O)C2)C(=O)[C@@H](C)C1 [CYCLOHEXIMIDE] | Not Active | Not Active | Not Active | Not Active | Not Active | Not Active | Not Active | Not Active | Not Active | Not Active | Not Active |  |  |  | 
12 | C/C=C/C[C@@H](C)[C@@H](O)[C@H]1C(=O)N[C@@H](CC)C(=O)N(C)CC(=O)N(C)[C@@H](CC(C)C)C(=O)N[C@@H](C(C)C)C(=O)N(C)[C@@H](CC(C)C)C(=O)N[C@@H](C)C(=O)N[C@H](C)C(=O)N(C)[C@@H](CC(C)C)C(=O)N(C)[C@@H](CC(C)C)C(=O)N(C)[C@@H](C(C)C)C(=O)N1C [CYCLOSPORINE] | Not Active | Not Active | Not Active | Not Active | Not Active | Not Active | Not Active | Not Active | Not Active | Not Active | Not Active |  |  |  | 
13 | CN(C)/N=N/c1[nH]cnc1C(N)=O [DACARBAZINE] | Not Active | Not Active | Not Active | Not Active | Not Active | Not Active | Not Active | Not Active | Not Active | Not Active | Not Active |  |  |  | 
14 | CN(C)c1ccc(C(=C2C=CC(=[N+](C)C)C=C2)c2ccc(N(C)C)cc2)cc1.[Cl-] [GENTIAN VIOLET] | Not Active | Not Active |  |  | Not Active | Not Active | Not Active | Not Active | Not Active |  | Not Active |  |  | 2130 nM | 1370 nM
15 | NC(=O)NO [HYDROXYUREA] | Not Active | Not Active | Not Active | Not Active | Not Active | Not Active | Not Active | Not Active | Not Active | Not Active | Not Active |  |  |  | 
16 | Oc1ccc(OCc2ccccc2)cc1 [MONOBENZONE] | Not Active | Not Active | Not Active | Not Active | Not Active | Not Active | Not Active | Not Active | Not Active | Not Active | Not Active |  |  |  | 
17 | COc1ccc2cc([C@H](C)C(=O)O)ccc2c1 [NAPROXEN] | Not Active | Not Active | Not Active | Not Active | Not Active | Not Active | Not Active |  |  | Not Active | Not Active |  |  |  | 
18 | COC(=O)C1=C(C)NC(C)=C(C(=O)OCC(C)C)C1c1ccccc1[N+](=O)[O-] (stereo unspecified) [NISOLDIPINE] | Not Active | Not Active |  |  | Not Active | Not Active | Not Active | Not Active | Not Active | Not Active | Not Active |  |  | 0.741 nM | 0.476 nM
19 | CCOC(=O)C1=C(C)NC(C)=C(C(=O)OC)C1c1cccc([N+](=O)[O-])c1 (stereo unspecified) [NITRENDIPINE] | Not Active | Not Active |  |  | Not Active | Not Active | Not Active | Not Active | Not Active | Not Active | Not Active |  |  | 0.383 nM | 0.246 nM
20 | CCn1cc(C(=O)O)c(=O)c2cc(F)c(N3CCN(C)CC3)cc21 [PEFLOXACIN] | Not Active | Not Active | Not Active | Not Active | Not Active | Not Active | Not Active | Not Active | Not Active | Not Active | Not Active |  |  |  | 
